The text below walks through data of patent publication US10774083B2, “Heterocyclic amide compound” (TAKEDA PHARMACEUTICAL COMPANY LIMITED, priority 2016, dated 2020).

The target of one assay is T1, human PRS protein (His-Avi-hEPRS (998-1512)) (Homo sapiens, UniProt P07814).
T1 construct: to construct His-Avi-hEPRS (998-1512) expression plasmid; His tag (N); Avi tag (N); TEV cleavage site (ENLYFQG, then S; inferred from the forward primer hEPRS-TEV-NheF) (N); made in house; host or cells: E. coli BL21(DE3)
T1 sequence (P07814 998-1512 limits assumed): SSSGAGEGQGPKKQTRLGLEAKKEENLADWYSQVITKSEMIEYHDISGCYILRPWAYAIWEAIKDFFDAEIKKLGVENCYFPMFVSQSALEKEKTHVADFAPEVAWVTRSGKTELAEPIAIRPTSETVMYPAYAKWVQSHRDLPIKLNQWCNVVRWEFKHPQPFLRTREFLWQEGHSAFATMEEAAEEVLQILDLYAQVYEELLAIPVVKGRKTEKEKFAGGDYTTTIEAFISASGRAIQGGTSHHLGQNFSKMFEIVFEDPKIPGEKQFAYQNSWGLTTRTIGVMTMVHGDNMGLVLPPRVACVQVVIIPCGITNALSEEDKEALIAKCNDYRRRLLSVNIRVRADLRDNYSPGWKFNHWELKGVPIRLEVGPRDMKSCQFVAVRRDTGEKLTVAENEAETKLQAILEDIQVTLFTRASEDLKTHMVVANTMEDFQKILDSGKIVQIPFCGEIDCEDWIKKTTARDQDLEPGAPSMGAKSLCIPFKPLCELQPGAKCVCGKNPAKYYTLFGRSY
Description: PRS inhibitory activity ([32P]pyrophosphate exchange enzyme assay). The class given is biochemical. The settings on record: 300 nM test compound; 0.3 µM. How it is done: The PRS inhibitory activity of the compounds of the present invention was evaluated by the following method.
An expression plasmid of Catalytic Domain of human EPRS was obtained by PCR using human skeletal muscle cDNA Library (Takara Bio Inc.) as a template and 2 kinds of Primers 5′-[…]-3′ (hEPRS-TEV-NheF) (SEQ ID NO: 1) and 5′-[…]-3′ (hEPRS-St-Not-R) (SEQ ID NO: 2). PCR was performed using PrimeStar GXL DNA Polymerase (Takara Bio Inc.) and included (1) 98° C., 1 min, (2) 35 cycles of 98° C., 10 sec, 65° C., 10 sec, 72° C., 1 min, and (3) reaction at 72° C., 1 min. This was cleaved with Nhe I and Not I (Takara Bio Inc.) and inserted using Ligation High (TOYOBO CO., LTD.) into the Nhe I/Not I site of pET21a (Novagen) with His-Avitag inserted thereinto. This was introduced into ECOS JM109 (NIPPON GENE CO., LTD.) to construct His-Avi-hEPRS (998-1512) expression plasmid.
Recombinant human PRS protein was prepared by transforming the His-Avi-hEPRS (998-1512) expression plasmid prepared above into ECOS Competent E. coli BL21(DE3) (NIPPON GENE CO., LTD.). Escherichia coli obtained by transformation was inoculated into 300 mL of LB medium (1% peptone, 0.5% yeast extract, 0.5% sodium chloride, 0.01% ampicillin) and cultured at 30° C. for 16 hr. The obtained culture medium was transferred into a jar culture tank charged with 6 L of the main fermentation medium (0.3% potassium dihydrogen phosphate, 0.6% disodium hydrogen phosphate, 0.1% ammonium chloride, 0.05% sodium chloride, 0.024% magnesium sulfate, 0.02% NEWPOL LB-625, 1.5% sorbitol, 1.5% casamino acid, 0.5% yeast extract, 0.01% ampicillin) and culturing was started at 37° C., quantity of airflow 5 L/min, stirring rotating speed 400 rpm. At the time point when the turbidity of the culture medium reached about 550 Klett units, the culture temperature was lowered to 16° C., isopropyl-β-D-thiogalactopyranoside (IPTG) was added to the final concentration 0.1 mM, and culturing was performed for another 16 hr to induce expression of human PRS. After completion of culturing, the culture medium was centrifuged at 5,000 rpm for 10 min. The obtained human PRS expressing Escherichia coli was suspended in a buffer containing 50 mM Tris-HCl (pH 8.0), 150 mM NaCl, 1 mM DTT, 5 U/ml Benzonase, 20 mM Imidazole and sonicated using Sonifier (BRANSON). The homogenate was centrifuged (33,000×G, 60 min, Beckman Coulter), the obtained supernatant was subjected to adsorption by passage through Ni-NTA Superflow (QIAGEN) column equilibrated in advance with 50 mM Tris-HCl (pH 8.0), 300 mM NaCl, 1 mM DTT, and elution was performed with a buffer containing 50 mM Tris-HCl (pH 8.0), 300 mM NaCl, 1 mM DTT, 250 mM Imidazole. Furthermore, gel filtration was performed using Superdex200 pg column equilibrated in advance with a buffer containing 50 mM Tris-HCl (pH 8.0), 150 mM NaCl, 1 mM DTT, 10% glycerol to give purified human PRS protein. The protein concentration was measured using BCA Protein Assay Kit (PIERCE) and BSA as the standard.
A test compound was dissolved in 5 μL of an assay buffer (50 mM Tris-HCl (pH 7.5), 20 mM KCl, 1 mM DTT, 0.01% Tween 20) and incubated for 60 min with 5 μL of 40 nM human PRS protein dissolved in the assay buffer containing 40 mM MgCl2. An enzyme reaction of the human PRS protein was started by adding 10 μL of a substrate solution containing 300 μM ATP, 160 μM L-Proline, 400 μM pyrophosphate, [^32P]pyrophosphate (PerkinElmer) prepared to 1 MBq/mL. After incubation at room temperature for 30 min, the reaction was discontinued by adding 50 μL of discontinuation/washing solution (1M HCl, 200 mM sodium pyrophosphate) to the reaction mixture. The reaction solution was transferred to a filter plate (Merck Millipore, Billerica, Mass.) previously added with 200 μL of charcoal solution (0.5% HCl solution containing 10% charcoal (w/v)). […]
With `Cn1cc(-c2cc(F)cc(CNC(=O)c3ncnc4nc(C5COCCO5)[nH]c34)c2)cn1` (stereo not shown) [Example 33, 8-(1,4-dioxan-2-yl)-N-(3-fluoro-5-(1-methyl-1H-pyrazol-4-yl)benzyl)-7H-purine-6-carboxamide], the “inhibitory rate (%) of PRS” value came to 99%.

Staying with this assay, now noted: 300 nM test compound; read-out: inhibitory rate (%) of PRS.
With `CCc1cc(N2CC[C@@](C#N)(C3CC3)C2=O)cc(C(=O)NCc2cc(F)cc(-c3cnn(C)c3)c2)n1` [Example 219, 4-((3S)-3-cyano-3-cyclopropyl-2-oxopyrrolidin-1-yl)-6-ethyl-N-(3-fluoro-5-(1-methyl-1H-pyrazol-4-yl)benzyl)pyridine-2-carboxamide], the inhibition at 0.3 µM is 94%. On to `Cn1cc(-c2cc(F)cc(CNC(=O)c3nccc4nc(C5CCCC5)n(C5CC5)c34)c2)cn1` [Example 108, 2-cyclopentyl-3-cyclopropyl-N-(3-fluoro-5-(1-methyl-1H-pyrazol-4-yl)benzyl)-3H-imidazo[4,5-c]pyridine-4-carboxamide], for which the inhibition at 0.3 µM worked out at 102%. Same read-out and setting: next, `Cn1cc(-c2cc(F)cc(CNC(=O)c3cc(N4CC[C@@](C#N)(C5CC5)C4=O)ccn3)c2)ccc1=O` [Example 150, 4-((3S)-3-cyano-3-cyclopropyl-2-oxopyrrolidin-1-yl)-N-(3-fluoro-5-(1-methyl-6-oxo-1,6-dihydropyridin-3-yl)benzyl)pyridine-2-carboxamide]: 87%; `COc1cc(N2CC[C@@](C#N)(C3CC3)C2=O)cc(C(=O)NCc2cc(F)cc(-c3cnn(C)c3)c2)n1` [Example 224, 4-((3S)-3-cyano-3-cyclopropyl-2-oxopyrrolidin-1-yl)-N-(3-fluoro-5-(1-methyl-1H-pyrazol-4-yl)benzyl)-6-methoxypyridine-2-carboxamide]: 74%.

With `Cc1cc(N2CCN(C(C)C)C2=O)cc(C(=O)NCc2cc(F)cc(-c3cnn(C)c3)c2)n1` [Example 226, N-(3-fluoro-5-(1-methyl-1H-pyrazol-4-yl)benzyl)-4-(3-isopropyl-2-oxoimidazolidin-1-yl)-6-methylpyridine-2-carboxamide], the inhibition at 0.3 µM is 91%. Regarding `Cc1cc(N2CC[C@@](C#N)(C3CC3)C2=O)cc(C(=O)NCc2cc(F)cc(-c3cncnc3)c2)n1` [Example 205, 4-((3S)-3-cyano-3-cyclopropyl-2-oxopyrrolidin-1-yl)-N-(3-fluoro-5-(pyrimidin-5-yl)benzyl)-6-methylpyridine-2-carboxamide], the inhibition at 0.3 µM came to 86%.

Consider `Cn1cc(-c2csc(CNC(=O)c3cc(N4CC[C@@](C#N)(C5CC5)C4=O)ccn3)c2)cn1` [Example 157, 4-((3S)-3-cyano-3-cyclopropyl-2-oxopyrrolidin-1-yl)-N-((4-(1-methyl-1H-pyrazol-4-yl)-2-thienyl)methyl)pyridine-2-carboxamide], for which the inhibition at 0.3 µM stood at 85%.

In the case of `Cc1nc(C(=O)NCc2cc(F)cc(-c3cnn(C)c3)c2)c2[nH]c(C3CCCC3)nc2n1` [Example 13, 8-cyclopentyl-N-(3-fluoro-5-(1-methyl-1H-pyrazol-4-yl)benzyl)-2-methyl-7H-purine-6-carboxamide], the inhibition at 0.3 µM came to 86%. Turning to `Cn1ncc2c(CNC(=O)c3nccc4nc(C5CCCC5)[nH]c34)cccc21` [Example 93, 2-cyclopentyl-N-((1-methyl-1H-indazol-4-yl)methyl)-3H-imidazo[4,5-c]pyridine-4-carboxamide], the inhibition at 0.3 µM was 91%.

On to `Cn1cc(-c2cc(F)cc(CNC(=O)c3nc(Cl)nc4nc(C5CCCC5)[nH]c34)c2)cn1` [Example 12, 2-chloro-8-cyclopentyl-N-(3-fluoro-5-(1-methyl-1H-pyrazol-4-yl)benzyl)-7H-purine-6-carboxamide], for which the inhibition at 0.3 µM came to 77%. For the molecule `Cn1cc(-c2cc(F)cc(CNC(=O)c3cc(N4CC[C@@](C#N)(C5CC5)C4=O)ccn3)c2)cn1` [Example 149, 4-((3S)-3-cyano-3-cyclopropyl-2-oxopyrrolidin-1-yl)-N-(3-fluoro-5-(1-methyl-1H-pyrazol-4-yl)benzyl)pyridine-2-carboxamide], the inhibition at 0.3 µM was determined as 95%.

On to `Cc1cc(N2CCC(C#N)(CC3CC3)C2=O)cc(C(=O)NCc2cc(F)cc(-c3cnn(C)c3)c2)n1` (stereo not shown) [Example 230, 4-(3-cyano-3-(cyclopropylmethyl)-2-oxopyrrolidin-1-yl)-N-(3-fluoro-5-(1-methyl-1H-pyrazol-4-yl)benzyl)-6-methylpyridine-2-carboxamide], for which the inhibition at 0.3 µM is 91%. Consider `Cn1ncc2cccc(CNC(=O)c3ncnc4nc(C5CCCC5)n(C)c34)c21` [Example 21, 8-cyclopentyl-7-methyl-N-((1-methyl-1H-indazol-7-yl)methyl)-7H-purine-6-carboxamide], for which the inhibition at 0.3 µM came out at 92%.

On to `Cn1cc(-c2cc(F)cc(CNC(=O)c3nccc4nc(C5CCCC5)n(Cc5ccccc5)c34)c2)cn1` [Example 123, 3-benzyl-2-cyclopentyl-N-(3-fluoro-5-(1-methyl-1H-pyrazol-4-yl)benzyl)-3H-imidazo[4,5-c]pyridine-4-carboxamide], for which the inhibition at 0.3 µM was 69%. With `Cn1cc(-c2cc(CNC(=O)c3nccc4nc(C5CCCC5)n(C)c34)ccn2)cn1` [Example 136, 2-cyclopentyl-3-methyl-N-((2-(1-methyl-1H-pyrazol-4-yl)pyridin-4-yl)methyl)-3H-imidazo[4,5-c]pyridine-4-carboxamide], the inhibition at 0.3 µM came out at 77%. Same read-out and setting: next, `CC1(c2nc3ccnc(C(=O)NCc4ccccc4Cl)c3[nH]2)CCCC1` [Example 87, N-(2-chlorobenzyl)-2-(1-methylcyclopentyl)-3H-imidazo[4,5-c]pyridine-4-carboxamide]: 74%; `Cc1cc(N2CCC(CO)(C3CC3)C2=O)cc(C(=O)NCc2cc(F)cc(-c3cnn(C)c3)c2)n1` (stereo not shown) [Example 235, 4-(3-cyclopropyl-3-(hydroxymethyl)-2-oxopyrrolidin-1-yl)-N-(3-fluoro-5-(1-methyl-1H-pyrazol-4-yl)benzyl)-6-methylpyridine-2-carboxamide]: 69%; `CC(C)c1nc2ccnc(C(=O)NCc3cc(F)cc(-c4cnn(C)c4)c3)c2[nH]1` [Example 99, N-(3-fluoro-5-(1-methyl-1H-pyrazol-4-yl)benzyl)-2-isopropyl-3H-imidazo[4,5-c]pyridine-4-carboxamide]: 96%.
